Measurements as given in patent US20060069132A1, “Azolecarboxamide herbicides” (priority 2004, published 2006).

Assays:
[1] = tested on: barnyardgrass; assay: Test B pre-/postemergence herbicide test; assay type: in vivo, Echinochloa crus-galli; settings: for Plant response rating (0 to 100 scale), Barnyardgrass: 0 is no effect
Method in brief: (§1)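 Pre: seeds sown, then sprayed. Post: 1–4-leaf plants (2–18 cm) sprayed at the same time. Paddy: flooded, treated at 2-leaf stage. Formulation: non-phytotoxic solvent with surfactant. Greenhouse 13–15 days; visual 0–100 score relative to controls.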

[2] = tested on: Surinam grass; assay: Test B pre-/postemergence herbicide test; assay type: in vivo, Urochloa decumbens
Method in brief: (§2)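 Greenhouse pot assay with simultaneous preemergence (treated seed) and postemergence (2–18 cm seedlings) applications of surfactant-containing, non-phytotoxic solvent formulations. Response scored visually 13–15 days later on a 0–100 scale, 100 meaning complete control.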

[3] = tested on: cocklebur; assay: Test B pre-/postemergence herbicide test; assay type: in vivo, Xanthium strumarium; settings: for Plant response rating (0 to 100 scale), Cocklebur: 0 is no effect
Method in brief: as §1

[4] = tested on: corn; assay: Test B pre-/postemergence herbicide test; assay type: in vivo, Zea mays; settings: for Plant response rating (0 to 100 scale), Corn: 0 is no effect
Method in brief: as §2

[5] = tested on: large crabgrass; assay: Test B pre-/postemergence herbicide test; assay type: in vivo, Digitaria sanguinalis; settings: for Plant response rating (0 to 100 scale), Crabgrass, Large: 0 is no effect
Method in brief: as §2

[6] = tested on: lambsquarters; assay: Test B pre-/postemergence herbicide test; assay type: in vivo, Chenopodium album
Method in brief: as §2

[7] = tested on: morningglory; assay: Test B pre-/postemergence herbicide test; assay type: in vivo, Ipomoea coccinea; settings: for Plant response rating (0 to 100 scale), Morningglory / Plant response rating, Morningglory: preemergence
Method in brief: as §1

[8] = tested on: velvetleaf; assay: Test B pre-/postemergence herbicide test; assay type: in vivo, Abutilon theophrasti
Method in brief: as §2

[9] = tested on: blackgrass; assay: Test B postemergence herbicide test; assay type: in vivo, Alopecurus myosuroides
Method in brief: (§3)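 Read-out: visual comparison with controls, scored 0 to 100, where 100 means complete control and 0 no effect. Formulated chemicals were applied postemergence to plants 2–18 cm tall (1- to 4-leaf), or to flooded-paddy plants at the 2-leaf stage, then held 13 to 15 days under glass.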

[10] = tested on: wheat; assay: Test B postemergence herbicide test; assay type: in vivo, Triticum aestivum; design: key to Wheat plant response rating: 0 = no effect, 100 = complete control
Method in brief: (§4)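 Scale 0–100: zero equals no visible effect, 100 complete control, judged by eye relative to controls. Timing: 13 to 15 days in greenhouse post-treatment. Growth stage at spraying: two leaves (paddy) or one to four leaves, 2–18 cm (postemergence).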

[11] = tested on: wild oat; assay: Test B postemergence herbicide test; assay type: in vivo, Avena fatua
Method in brief: as §4

[12] = tested on: rice; assay: Test B flooded paddy test; assay type: in vivo, Oryza sativa; settings: 1000 g ai/ha, scale 0 to 100 (0 no effect, 100 complete control)
Method in brief: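 Greenhouse test; postemergence application to plants at 1–4 leaves (2–18 cm); paddy species at 2 leaves; evaluated visually vs controls at 13–15 days; scale 0–100 (100 = complete control).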

[13] = tested on: small flower umbrella sedge; assay: Test B flooded paddy test; assay type: in vivo, Cyperus difformis; settings: 1000 g ai/ha, scale 0 to 100 (0 no effect, 100 complete control)
Method in brief: as §3

[14] = tested on: ducksalad; assay: Test B flooded paddy test; assay type: in vivo, Heteranthera limosa; settings: 1000 g ai/ha, scale 0 to 100 (0 no effect, 100 complete control)
Method in brief: as §3

[15] = tested on: barnyardgrass; assay: Test B flooded paddy test; assay type: in vivo, Echinochloa crus-galli; settings: 1000 g ai/ha, scale 0 to 100 (0 no effect, 100 complete control)
Method in brief: as §3

[16] = 125 g ai/ha, 100 is complete control, preemergence
[17] = 125 g ai/ha, visual rating, scale 0 (no effect) to 100 (complete control), postemergence
[18] = 500 g ai/ha, visual rating, 0 = no effect, 100 = complete control, preemergence
[19] = postemergence, 500 g ai/ha, scale 0 to 100, 0 is no effect, 100 is complete control
[20] = 125 g ai/ha, 0 is no effect, 100 is complete control, preemergence
[21] = 125 g ai/ha, 0 is no effect, 100 is complete control
[22] = Postemergence, 125 g ai/ha, scale 0 (no effect) to 100 (complete control)
[23] = Postemergence, 500 g ai/ha, visual rating after 13 to 15 days, scale 0 (no effect) to 100 (complete control)
[24] = Preemergence, 500 g ai/ha, scale 0 to 100
[25] = preemergence, 125 g ai/ha, 0 to 100 scale, 0 is no effect, 100 is complete control
[26] = Postemergence, 500 g ai/ha, scale 0 (no effect) to 100 (complete control)

CCN(CC)C(=O)c1cccc(NC(=O)c2cc(C(C)(C)C)nn2C)n1 [Compound 314]
90: Plant response rating, Barnyardgrass [1, 18]
60: Lambsquarters plant response rating [6, 19] | Sedge, Umbrella plant response rating [13]
30: Barnyardgrass plant response rating [1, 19] | Cocklebur plant response rating [3, 19] | Plant response rating, Crabgrass, Large [5, 18] | Lambsquarters plant response rating [6, 17] | Velvetleaf plant response rating [8, 19] | Oat, Wild plant response rating [11, 19] | Barnyardgrass plant response rating [15]
80: Plant response rating, Surinam Grass [2, 18] | Plant response rating, Lambsquarters [6, 18] | Morningglory plant response rating [7, 19]
0: Plant response rating (0 to 100 scale), Cocklebur [3, 16] | Plant response rating, Cocklebur [3, 18] | Plant response rating (0 to 100 scale), Corn [4, 16] | Plant response rating (0 to 100 scale), Morningglory [7, 21] | Wheat plant response rating [10, 17] | Rice plant response rating [12] | Ducksalad plant response rating [14]
10: Plant response rating (0 to 100 scale), Barnyardgrass [1, 16] | Barnyardgrass plant response rating [1, 17] | Cocklebur plant response rating [3, 17] | Corn plant response rating [4, 17] | Plant response rating, Corn [4, 18] | Crabgrass, Large plant response rating [5, 17] | Blackgrass plant response rating [9, 17] | Wheat plant response rating [10, 19] | Oat, Wild plant response rating [11, 17]
100: Plant response rating, Velvetleaf [8, 18]
20: Plant response rating (0 to 100 scale), Surinam Grass [2, 20] | Surinam Grass plant response rating [2, 17] | Surinam Grass plant response rating [2, 19] | Corn plant response rating [4, 19] | Plant response rating (0 to 100 scale), Crabgrass, Large [5, 16] | Crabgrass, Large plant response rating [5, 19] | Plant response rating (0 to 100 scale), Lambsquarters [6, 20] | Morningglory plant response rating [7, 17] | Plant response rating, Morningglory ([7]; 500 g ai/ha, visual rating, 0 = no effect, 100 = complete control) | Plant response rating (0 to 100 scale), Velvetleaf [8, 20] | Velvetleaf plant response rating [8, 17] | Blackgrass plant response rating [9, 19]

CCNC(=O)c1cccc(NC(=O)c2cc(C(C)(C)C)nn2CCF)c1 [Compound 35]
80: Surinam Grass plant response rating [2, 24] | Lambsquarters plant response rating [6, 22] | Ducksalad plant response rating ([14]; visual rating, 13 to 15 days)
20: Plant response rating, Barnyardgrass [1, 23] | Crabgrass, Large plant response rating [5, 22] | Plant response rating, Crabgrass, Large [5, 23] | Blackgrass plant response rating [9, 22] | Plant response rating, Wheat [10, 23]
10: Barnyardgrass plant response rating [1, 22] | Morningglory plant response rating [7, 24] | Plant response rating, Morningglory ([7]; 125 g ai/ha, 0 to 100 scale, 0 is no effect, 100 is complete control) | Plant response rating, Oat, Wild [11, 23]
40: Plant response rating, Surinam Grass [2, 23] | Plant response rating, Surinam Grass [2, 25] | Corn plant response rating [4, 24]
30: Cocklebur plant response rating [3, 24] | Plant response rating, Blackgrass [9, 23]
0: Oat, Wild plant response rating [11, 22]
50: Cocklebur plant response rating [3, 22] | Plant response rating, Velvetleaf [8, 23] | Plant response rating, Velvetleaf [8, 25]
90: Crabgrass, Large plant response rating [5, 24] | Plant response rating, Lambsquarters [6, 23] | Plant response rating, Lambsquarters [6, 25] | Sedge, Umbrella plant response rating ([13]; visual rating, 13 to 15 days) | Barnyardgrass plant response rating ([15]; visual rating, 13 to 15 days)
100: Barnyardgrass plant response rating [1, 24] | Plant response rating, Cocklebur [3, 23] | Lambsquarters plant response rating [6, 24]
60: Velvetleaf plant response rating [8, 24] | Rice plant response rating ([12]; visual rating, 13 to 15 days)

C=CCNC(=O)c1cccc(NC(=O)c2nn(C(C)C)nc2CC)c1 [Compound 382]
50: Plant response rating (0 to 100 scale), Surinam Grass [2, 20] | Lambsquarters plant response rating [6, 17]
10: Surinam Grass plant response rating [2, 17] | Surinam Grass plant response rating [2, 26] | Cocklebur plant response rating [3, 17] | Cocklebur plant response rating [3, 19] | Crabgrass, Large plant response rating [5, 17] | Crabgrass, Large plant response rating [5, 19] | Plant response rating (0 to 100 scale), Morningglory [7, 21] | Plant response rating (0 to 100 scale), Velvetleaf [8, 20] | Velvetleaf plant response rating [8, 17] | Blackgrass plant response rating [9, 17] | Wheat plant response rating [10, 26] | Oat, Wild plant response rating [11, 17]
30: Blackgrass plant response rating [9, 19]
70: Lambsquarters plant response rating [6, 26] | Sedge, Umbrella plant response rating [13]
20: Morningglory plant response rating [7, 17] | Velvetleaf plant response rating [8, 26] | Oat, Wild plant response rating [11, 26]
100: Plant response rating (0 to 100 scale), Lambsquarters [6, 20]
80: Plant response rating (0 to 100 scale), Barnyardgrass [1, 16] | Plant response rating (0 to 100 scale), Crabgrass, Large [5, 16] | Wheat plant response rating ([10]; 500 g ai/ha, scale 0 to 100, 0 no effect, 100 complete control, preemergence) | Rice plant response rating [12] | Ducksalad plant response rating [14] | Barnyardgrass plant response rating [15]
0: Barnyardgrass plant response rating [1, 17] | Barnyardgrass plant response rating [1, 19] | Plant response rating (0 to 100 scale), Cocklebur [3, 16] | Plant response rating (0 to 100 scale), Corn [4, 16] | Corn plant response rating [4, 17] | Corn plant response rating [4, 19] | Wheat plant response rating [10, 17]
60: Morningglory plant response rating [7, 26]
